Measured values taken from patent US8987320B2, “Solid salt forms of a pyrrole substituted 2-indolinone” (Zoetis LLC, priority 2005, dated 2015).
Like-named read-outs stand apart in the source and are kept apart here.

Assay: Estimation of solubility in various solvents by step-wise solvent addition
Format: physicochemical
Experimental: Samples of 1-2 mg of Compound I phosphate (lot 35282-CS-51) were transferred to 10 mL glass vials (tared) and were weighed (accurate to 0.1 mg). Solvents were added to the vials (one solvent to each vial) in a step-wise fashion, with 0.5 mL of solvent added at each step. Solvents used were buffer (pH=2), buffer (pH=5), water, methanol, tetrahydrofuran (THF), acetonitrile, and acetone. After each addition, the vial was capped and shaken. The dissolution of solid was visually observed. If no obvious dissolution was observed, more solvent was added immediately. If dissolution was apparent, the vial was left on the bench for at least 30 minutes before the next addition of solvent. This step was repeated until no crystals were visible against a black and a white background. The solubility was then bracketed by dividing the weight of the compound by the final volume and the volume before the last addition. If a solid remained after the addition of 10 mL of solvent, the solubility was expressed as less than the weight divided by the final volume. If the solid was completely dissolved after the first addition of solvent, the solubility was expressed as greater than the weight divided by the solvent volume. All experiments were conducted at room temperature.

Estimated solubility (Acetone, 23° C.): <<<0.2 mg/mL | Estimated solubility (Acetonitrile, 23° C.): <<<0.13 mg/mL | Estimated solubility (THF, 23° C.): <<<0.19 mg/mL | solubility (buffer (pH 2), pH 2, at pH 2 or lower, read-out: solubility): > 3000 µg/mL | solubility (buffer (pH 2, HCl and KCl), 23 °C, pH 2, aqueous buffer, thermodynamic from solid, buffer (pH = 2, HCl and KCl), 23° C., read-out: Estimated solubility): 5900 to 7400 µg/mL | Estimated solubility (methanol, 23° C.): ~0.14 mg/mL | solubility (water, 23 °C, pH 4.91, water, thermodynamic from solid, water, 23° C., final solution pH 4.91, read-out: Estimated solubility): ~290 µg/mL
Compound: Cc1[nH]c(/C=C2\C(=O)Nc3ccc(F)cc32)c(C)c1C(=O)NCCN1CCCC1 [Compound I phosphate]
